According to patent publication US9758524B2, “4-imidazopyridazin-1-yl-benzamides as Btk inhibitors” (Merck Sharp & Dohme B.V., priority 2011, dated 2017):
Where two headings read alike, the source gives them in different places.

Columns and labels:
Lyn enzyme = Lyn enzyme (Homo sapiens (Human), UniProt P07948); assay: Lyn enzyme activity (IMAP fluorescence polarization assay)
Lck enzyme = Lck enzyme (Homo sapiens (Human), UniProt P06239); assay: Lck enzyme activity (IMAP fluorescence polarization assay)
Chain of Lck enzyme (P06239 whole entry): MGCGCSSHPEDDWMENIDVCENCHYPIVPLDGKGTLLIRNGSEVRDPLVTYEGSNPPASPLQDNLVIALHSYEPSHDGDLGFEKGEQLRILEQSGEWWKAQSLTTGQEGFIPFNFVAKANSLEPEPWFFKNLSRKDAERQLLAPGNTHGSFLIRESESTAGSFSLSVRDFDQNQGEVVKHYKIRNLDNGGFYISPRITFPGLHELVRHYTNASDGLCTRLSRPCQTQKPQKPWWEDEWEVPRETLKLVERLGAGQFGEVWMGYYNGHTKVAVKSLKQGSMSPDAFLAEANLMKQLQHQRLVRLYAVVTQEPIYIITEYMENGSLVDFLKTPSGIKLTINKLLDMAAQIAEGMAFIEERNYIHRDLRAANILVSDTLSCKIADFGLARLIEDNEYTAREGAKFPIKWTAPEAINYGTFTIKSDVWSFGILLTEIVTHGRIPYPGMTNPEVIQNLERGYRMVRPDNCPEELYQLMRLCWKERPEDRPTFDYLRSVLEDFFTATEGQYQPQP

FynT enzyme = FynT enzyme (Homo sapiens (Human), UniProt P06241); assay: FynT enzyme activity (IMAP fluorescence polarization assay); assay type: biochemical; conditions: 60 min pre-incubation, 0.2 μM ATP
Chain of FynT enzyme (P06241 other isoform, or with tags, fused parts or gaps): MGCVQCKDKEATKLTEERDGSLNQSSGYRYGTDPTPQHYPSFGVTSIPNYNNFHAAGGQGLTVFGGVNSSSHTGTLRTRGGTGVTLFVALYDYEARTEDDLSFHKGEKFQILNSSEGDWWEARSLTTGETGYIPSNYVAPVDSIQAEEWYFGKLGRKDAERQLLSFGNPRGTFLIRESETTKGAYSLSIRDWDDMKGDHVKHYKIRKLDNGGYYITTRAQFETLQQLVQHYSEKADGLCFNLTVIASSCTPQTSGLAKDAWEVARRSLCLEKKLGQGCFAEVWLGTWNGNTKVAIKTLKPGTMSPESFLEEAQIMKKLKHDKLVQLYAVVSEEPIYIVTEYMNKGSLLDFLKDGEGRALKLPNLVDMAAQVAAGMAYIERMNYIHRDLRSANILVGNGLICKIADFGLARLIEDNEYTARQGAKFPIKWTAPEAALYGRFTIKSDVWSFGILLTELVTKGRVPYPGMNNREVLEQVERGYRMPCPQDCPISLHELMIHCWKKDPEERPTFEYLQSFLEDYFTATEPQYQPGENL
Protocol: FynT enzyme activity is measured using the IMAP (immobilized metal ion affinity-based fluorescence polarization) assay as outlined below.
Test compounds and FynT enzyme are pre-incubated 60 minutes at room temperature, before adding 5 μL/well of 400 nM Fluorescin labeled substrate peptide (p34cdc2 substrate peptide, e.g. #R7157/#R7172, Molecular Devices) in KR-buffer. Final peptide substrate concentration in assay is 100 nM. […] Following incubation for 2 h at room temperature the enzyme reaction is stopped by adding 40 μL/well IMAP Progressive Binding Solution (according to suppliers (Molecular Devices) protocol using 75% 1× buffer A and 25% 1× buffer B with 1:600 Progressive Binding Solution). After 60 min incubation at room temperature in the dark the FP signal is read. […] Values are calculated as percentage of the difference in readout (ΔmPi) of the controls with and without ATP. EC50 values are determined by curve fitting of the experimental results using Activity Base.

Btk enzyme (His-Btk) = Btk enzyme (His-Btk) (Homo sapiens (Human), UniProt Q06187); assay: Btk enzyme activity (IMAP fluorescence polarization assay)
Chain of Btk enzyme (His-Btk) (Q06187 whole entry): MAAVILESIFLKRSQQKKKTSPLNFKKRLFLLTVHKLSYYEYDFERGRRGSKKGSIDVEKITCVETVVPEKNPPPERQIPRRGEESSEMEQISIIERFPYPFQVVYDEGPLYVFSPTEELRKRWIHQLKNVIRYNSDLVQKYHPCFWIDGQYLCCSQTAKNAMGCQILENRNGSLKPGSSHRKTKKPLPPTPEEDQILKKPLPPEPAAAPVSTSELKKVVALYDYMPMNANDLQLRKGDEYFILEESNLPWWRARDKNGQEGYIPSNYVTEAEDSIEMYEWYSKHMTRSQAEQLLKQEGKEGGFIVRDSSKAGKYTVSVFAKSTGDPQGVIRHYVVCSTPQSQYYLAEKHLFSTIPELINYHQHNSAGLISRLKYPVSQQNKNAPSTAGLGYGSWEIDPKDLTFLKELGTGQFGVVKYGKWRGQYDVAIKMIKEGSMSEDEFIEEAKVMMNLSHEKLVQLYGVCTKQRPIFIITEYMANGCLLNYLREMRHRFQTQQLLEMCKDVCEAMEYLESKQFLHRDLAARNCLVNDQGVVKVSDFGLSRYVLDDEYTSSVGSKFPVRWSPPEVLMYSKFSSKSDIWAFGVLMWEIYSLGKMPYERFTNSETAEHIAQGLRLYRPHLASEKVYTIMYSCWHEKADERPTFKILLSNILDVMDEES
Protocol: Inhibition of kinase activity can be measured using the Immobilized Metal Assay for Phosphochemicals (IMAP) assay. IMAP is a homogeneous fluorescence polarization (FP) assay based on affinity capture of phosphorylated peptide substrates. IMAP uses fluorescein-labeled peptide substrates that, upon phosphorylation by a protein kinase, bind to so-called IMAP nanoparticles, which are derivatized with trivalent metal complexes.
Final peptide substrate concentration in assay is 50 nM.

Src enzyme = Src enzyme (Homo sapiens (Human), UniProt P12931); assay: Src enzyme activity (IMAP fluorescence polarization assay)
Chain of Src enzyme (P12931 whole entry, looked up): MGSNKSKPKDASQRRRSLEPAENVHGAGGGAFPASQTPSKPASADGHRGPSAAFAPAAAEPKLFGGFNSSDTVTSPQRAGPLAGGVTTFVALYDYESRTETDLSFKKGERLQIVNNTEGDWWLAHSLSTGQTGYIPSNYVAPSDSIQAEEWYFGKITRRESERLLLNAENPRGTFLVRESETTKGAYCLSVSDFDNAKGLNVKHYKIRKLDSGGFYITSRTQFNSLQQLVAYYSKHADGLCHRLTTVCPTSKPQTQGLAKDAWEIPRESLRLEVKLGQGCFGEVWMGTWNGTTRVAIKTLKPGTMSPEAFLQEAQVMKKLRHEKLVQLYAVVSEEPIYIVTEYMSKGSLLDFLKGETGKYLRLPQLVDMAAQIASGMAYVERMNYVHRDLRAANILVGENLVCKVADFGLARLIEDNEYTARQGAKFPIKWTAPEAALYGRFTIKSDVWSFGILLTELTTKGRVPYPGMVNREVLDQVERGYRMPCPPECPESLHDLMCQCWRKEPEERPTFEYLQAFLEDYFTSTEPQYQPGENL

[1] = read-out: EC50 Lyn activity values, 60 min pre-incubation, 2 μM ATP, bin bound in μM
[2] = read-out: EC50 Lck activity values, IMAP, 60 min pre-incubation, 6 μM ATP, bin bound in μM
[3] = read-out: EC50 Btk activity values, IMAP, 60 min pre-incubation, 5 μM ATP, bin bound in nM
[4] = read-out: EC50 Src activity values, IMAP, 60 min pre-incubation, 4 μM ATP
[5] = EC50 Lyn activity values, 60 min pre-incubation, 2 μM ATP, bin bound in μM
[6] = IMAP, 60 min pre-incubation, 5 μM ATP, bin bound in nM

Chain of Lyn enzyme (P07948 whole entry): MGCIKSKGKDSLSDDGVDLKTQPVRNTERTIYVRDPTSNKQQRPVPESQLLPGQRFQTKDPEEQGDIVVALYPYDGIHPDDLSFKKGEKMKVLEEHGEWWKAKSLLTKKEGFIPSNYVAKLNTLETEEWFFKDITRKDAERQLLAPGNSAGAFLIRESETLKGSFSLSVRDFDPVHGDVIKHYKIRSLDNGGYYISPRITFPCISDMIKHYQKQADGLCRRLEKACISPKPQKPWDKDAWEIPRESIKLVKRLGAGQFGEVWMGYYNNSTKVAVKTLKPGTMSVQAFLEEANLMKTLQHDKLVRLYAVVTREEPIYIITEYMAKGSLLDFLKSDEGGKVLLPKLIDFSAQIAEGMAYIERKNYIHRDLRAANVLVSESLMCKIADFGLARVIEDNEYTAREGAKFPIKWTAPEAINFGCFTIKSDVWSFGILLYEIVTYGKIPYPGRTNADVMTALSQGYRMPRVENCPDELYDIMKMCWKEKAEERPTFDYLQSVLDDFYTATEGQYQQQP

Compound: C=CC(=O)N1CCC[C@H]1c1nc(-c2ccc(C(=O)Nc3ccccn3)cc2)c2c(N)nccn12 [Example 1, (S)-4-(3-(1-Acryloylpyrrolidin-2-yl)-8-aminoimidazo[1,5-a]pyrazin-1-yl)-N-(pyridin-2-yl)benzamide]
- EC50 (Lyn enzyme; [1]): ≥ 1 µM
- EC50 (Lck enzyme; [2]): ≥ 1 µM
- EC50 (FynT enzyme): ≥ 1000 nM
- EC50 (Btk enzyme (His-Btk); [3]): < 10 nM
- EC50 (Src enzyme; [4]): ≥ 1000 nM

Compound: Nc1nccn2c([C@@H]3CCCN3C(=O)/C=C/CN3CCCC3)nc(-c3ccc(C(=O)Nc4ccccn4)cc3)c12 [Example 2, (S,E)-4-(8-amino-3-(1-(4-(pyrrolidin-1-yl)but-2-enoyl)pyrrolidin-2-yl)imidazo[1,5-a]pyrazin-1-yl)-N-(pyridin-2-yl)benzamide]
- EC50 (Lyn enzyme; [5]): ≥ 1 µM
- EC50 (Lck enzyme): ≥ 1 µM
- EC50 (FynT enzyme): ≥ 1000 nM
- EC50 (Btk enzyme (His-Btk)): 10 to 100 nM
- EC50 Btk activity values (Btk enzyme (His-Btk); [6]): <100 nM
- EC50 (Src enzyme): ≥ 1000 nM

Compound: CN(C)C/C=C/C(=O)N1CCC[C@H]1c1nc(-c2ccc(C(=O)Nc3ccccn3)cc2)c2c(N)nccn12 [Example 3, (S,E)-4-(8-Amino-3-(1-(4-(dimethylamino)but-2-enoyl)pyrrolidin-2-yl)imidazo[1,5-a]pyrazin-1-yl)-N-(pyridin-2-yl)benzamide]
- EC50 (Btk enzyme (His-Btk); [3]): < 10 nM

Compound: COC/C=C/C(=O)N1CCC[C@H]1c1nc(-c2ccc(C(=O)Nc3ccccn3)cc2)c2c(N)nccn12 [Example 4, (S,E)-4-(8-amino-3-(1-(4-methoxybut-2-enoyl)pyrrolidin-2-yl)imidazo[1,5-a]pyrazin-1-yl)-N-(pyridin-2-yl)benzamide]
- EC50 (Lyn enzyme; [1]): ≥ 1 µM
- EC50 (Lck enzyme; [2]): ≥ 1 µM
- EC50 (FynT enzyme): ≥ 1000 nM
- EC50 (Btk enzyme (His-Btk)): 10 to 100 nM
- EC50 Btk activity values (Btk enzyme (His-Btk); [6]): <100 nM
- EC50 (Src enzyme; [4]): ≥ 1000 nM

Compound: Nc1nccn2c([C@@H]3CCCN3C(=O)c3ccnc(Cl)n3)nc(-c3ccc(C(=O)Nc4ccccn4)cc3)c12 [Example 5, (S)-4-(8-amino-3-(1-(2-chloropyrimidine-4-carbonyl)pyrrolidin-2-yl)imidazo[1,5-a]pyrazin-1-yl)-N-(pyridin-2-yl)benzamide]
- EC50 (Lyn enzyme; [1]): ≥ 1 µM
- EC50 (Lck enzyme; [2]): ≥ 1 µM
- EC50 (FynT enzyme): ≥ 1000 nM
- EC50 (Btk enzyme (His-Btk)): 10 to 100 nM
- EC50 Btk activity values (Btk enzyme (His-Btk); [6]): <100 nM
- EC50 (Src enzyme; [4]): ≥ 1000 nM

Compound: CC#CC(=O)N1CCC[C@H]1c1nc(-c2ccc(C(=O)Nc3ccccn3)cc2)c2c(N)nccn12 [Example 6, (S)-4-(8-amino-3-(1-but-2-ynoylpyrrolidin-2-yl)imidazo[1,5-a]pyrazin-1-yl)-N-(pyridin-2-yl)benzamide]
- EC50 (Lyn enzyme; [5]): ≥ 1 µM
- EC50 (Lck enzyme): ≥ 1 µM
- EC50 (FynT enzyme): ≥ 1000 nM
- EC50 (Src enzyme): ≥ 1000 nM

Compound: CN(C)C/C=C/C(=O)N1CCC[C@H]1c1nc(-c2ccc(C(=O)Nc3cc(F)ccn3)cc2)c2c(N)nccn12 [Example 7, (S,E)-4-(8-Amino-3-(1-(4-(dimethylamino)but-2-enoyl)pyrrolidin-2-yl)imidazo[1,5-a]pyrazin-1-yl)-N-(4-fluoropyridin-2-yl)benzamide]
- EC50 (Lyn enzyme; [1]): ≥ 1 µM
- EC50 (Lck enzyme; [2]): ≥ 1 µM
- EC50 (FynT enzyme): ≥ 1000 nM
- EC50 (Btk enzyme (His-Btk)): 10 to 100 nM
- EC50 Btk activity values (Btk enzyme (His-Btk); [6]): <100 nM
- EC50 (Src enzyme; [4]): ≥ 1000 nM

Compound: CC#CC(=O)N1CCC[C@H]1c1nc(-c2ccc(C(=O)Nc3cc(C)ccn3)cc2)c2c(N)nccn12 [Example 8, (S)-4-(8-Amino-3-(1-but-2-ynoylpyrrolidin-2-yl)imidazo[1,5-a]pyrazin-1-yl)-N-(4-methylpyridin-2-yl)benzamide]
- EC50 (Lyn enzyme; [1]): ≥ 1 µM
- EC50 (Lck enzyme; [2]): ≥ 1 µM
- EC50 (FynT enzyme): ≥ 1000 nM
- EC50 (Btk enzyme (His-Btk); [3]): < 10 nM
- EC50 (Src enzyme; [4]): ≥ 1000 nM

Compound: CC#CC(=O)N1CCC[C@H]1c1nc(-c2ccc(C(=O)Nc3cc(C(F)(F)F)ccn3)cc2)c2c(N)nccn12 [Example 10, (S)-4-(8-Amino-3-(1-but-2-ynoylpyrrolidin-2-yl)imidazo[1,5-a]pyrazin-1-yl)-N-(4-(trifluoromethyl)pyridin-2-yl)benzamide]
- EC50 (Lyn enzyme; [1]): ≥ 1 µM
- EC50 (Lck enzyme; [2]): ≥ 1 µM
- EC50 (FynT enzyme): ≥ 1000 nM
- EC50 (Btk enzyme (His-Btk); [3]): < 10 nM
- EC50 (Src enzyme; [4]): ≥ 1000 nM

Compound: CCc1ccnc(NC(=O)c2ccc(-c3nc([C@@H]4CCCN4C(=O)/C=C/COC)n4ccnc(N)c34)cc2)c1 [Example 11, (S,E)-4-(8-Amino-3-(1-(4-methoxybut-2-enoyl)pyrrolidin-2-yl)imidazo[1,5-a]pyrazin-1-yl)-N-(4-ethylpyridin-2-yl)benzamide]
- EC50 (Lyn enzyme; [1]): ≥ 1 µM
- EC50 (Lck enzyme; [2]): ≥ 1 µM
- EC50 (FynT enzyme): ≥ 1000 nM
- EC50 (Btk enzyme (His-Btk)): 10 to 100 nM
- EC50 Btk activity values (Btk enzyme (His-Btk); [6]): <100 nM
- EC50 (Src enzyme; [4]): ≥ 1000 nM

Compound: CC#CC(=O)N1CCC[C@H]1c1nc(-c2ccc(C(=O)Nc3nc4c(s3)CCCC4)cc2)c2c(N)nccn12 [Example 12, (S)-4-(8-Amino-3-(1-but-2-ynoylpyrrolidin-2-yl)imidazo[1,5-a]pyrazin-1-yl)-N-(4,5,6,7-tetrahydrobenzo[d]thiazol-2-yl)benzamide]
- EC50 (Lyn enzyme; [1]): ≥ 1 µM
- EC50 (Lck enzyme; [2]): ≥ 1 µM
- EC50 (FynT enzyme): ≥ 1000 nM
- EC50 (Btk enzyme (His-Btk); [3]): < 10 nM
- EC50 (Src enzyme; [4]): ≥ 1000 nM

Compound: C=CC(=O)N1CCC[C@H]1c1nc(-c2ccc(C(=O)Nc3ccccn3)c(F)c2)c2c(N)nccn12 [Example 13, (S)-4-(3-(1-acryloylpyrrolidin-2-yl)-8-aminoimidazo[1,5-a]pyrazin-1-yl)-2-fluoro-N-(pyridin-2-yl)benzamide]
- EC50 (Lyn enzyme; [1]): ≥ 1 µM
- EC50 (Lck enzyme; [2]): ≥ 1 µM
- EC50 (FynT enzyme): ≥ 1000 nM
- EC50 (Btk enzyme (His-Btk); [3]): < 10 nM
- EC50 (Src enzyme; [4]): ≥ 1000 nM

Compound: C=CC(=O)N1CCC[C@H]1c1nc(-c2ccc(C(=O)Nc3ccccn3)c(OC)c2)c2c(N)nccn12 [Example 14, (S)-4-(3-(1-Acryloylpyrrolidin-2-yl)-8-aminoimidazo[1,5-a]pyrazin-1-yl)-2-methoxy-N-(pyridin-2-yl)benzamide]
- EC50 (Lyn enzyme; [1]): ≥ 1 µM
- EC50 (Lck enzyme; [2]): ≥ 1 µM
- EC50 (FynT enzyme): ≥ 1000 nM
- EC50 (Btk enzyme (His-Btk); [3]): < 10 nM
- EC50 (Src enzyme; [4]): ≥ 1000 nM

Compound: CN(C)C/C=C/C(=O)N1CCC[C@H]1c1nc(-c2ccc(C(=O)Nc3nccs3)cc2)c2c(N)nccn12 [Example 15, (S,E)-4-(8-Amino-3-(1-(4-(dimethylamino)but-2-enoyl)pyrrolidin-2-yl)imidazo[1,5-a]pyrazin-1-yl)-N-(thiazol-2-yl)benzamide]
- EC50 (Lyn enzyme; [1]): ≥ 1 µM
- EC50 (Lck enzyme; [2]): ≥ 1 µM
- EC50 (FynT enzyme): ≥ 1000 nM
- EC50 (Btk enzyme (His-Btk); [3]): < 10 nM
- EC50 (Src enzyme; [4]): ≥ 1000 nM

Compound: COC/C=C/C(=O)N1CCCC[C@H]1c1nc(-c2ccc(C(=O)Nc3ccccn3)cc2)c2c(N)nccn12 [Example 16, (S,E)-4-(8-Amino-3-(1-(4-methoxybut-2-enoyl)piperidin-2-yl)imidazo[1,5-a]pyrazin-1-yl)-N-(pyridin-2-yl)benzamide]
- EC50 (Lyn enzyme; [1]): ≥ 1 µM
- EC50 (Lck enzyme; [2]): ≥ 1 µM
- EC50 (FynT enzyme): ≥ 1000 nM
- EC50 (Btk enzyme (His-Btk); [3]): < 10 nM
- EC50 (Src enzyme; [4]): ≥ 1000 nM

Compound: C=CC(=O)N1CCCC[C@H]1c1nc(-c2ccc(C(=O)Nc3cc(F)ccn3)cc2)c2c(N)nccn12 [Example 17, (S)-4-(3-(1-Acryloylpiperidin-2-yl)-8-aminoimidazo[1,5-a]pyrazin-1-yl)-N-(4-fluoropyridin-2-yl)benzamide]
- EC50 (Lyn enzyme; [1]): ≥ 1 µM
- EC50 (Lck enzyme; [2]): ≥ 1 µM
- EC50 (FynT enzyme): ≥ 1000 nM
- EC50 (Btk enzyme (His-Btk); [3]): < 10 nM
- EC50 (Src enzyme; [4]): ≥ 1000 nM

Compound: C=CC(=O)N1CCCC[C@H]1c1nc(-c2ccc(C(=O)Nc3cc(C#N)ccn3)cc2)c2c(N)nccn12 [Example 18, (S)-4-(3-(1-Acryloylpiperidin-2-yl)-8-aminoimidazo[1,5-a]pyrazin-1-yl)-N-(4-cyanopyridin-2-yl)benzamide]
- EC50 (Lyn enzyme; [1]): ≥ 1 µM
- EC50 (Lck enzyme; [2]): ≥ 1 µM
- EC50 (FynT enzyme): ≥ 1000 nM
- EC50 (Btk enzyme (His-Btk); [3]): < 10 nM
- EC50 (Src enzyme; [4]): ≥ 1000 nM

Compound: C=CS(=O)(=O)N1CCCC[C@H]1c1nc(-c2ccc(C(=O)Nc3cc(C(F)(F)F)ccn3)cc2)c2c(N)nccn12 [Example 19, (S)-4-(8-Amino-3-(1-(vinylsulfonyl)piperidin-2-yl)imidazo[1,5-a]pyrazin-1-yl)-N-(4-(trifluoromethyl)pyridin-2-yl)benzamide]
- EC50 (Lyn enzyme; [1]): ≥ 1 µM
- EC50 (Lck enzyme; [2]): ≥ 1 µM
- EC50 (FynT enzyme): ≥ 1000 nM
- EC50 (Btk enzyme (His-Btk); [3]): < 10 nM
- EC50 (Src enzyme; [4]): ≥ 1000 nM

Compound: C/C=C/C(=O)N1CCC[C@H]1c1nc(-c2ccc(C(=O)Nc3ccccn3)cc2)c2c(N)nccn12 [Example 93, (S,E)-4-(8-amino-3-(1-but-2-enoylpyrrolidin-2-yl)imidazo[1,5-a]pyrazin-1-yl)-N-(pyridin-2-yl)benzamide]
- EC50 (Lyn enzyme; [1]): ≥ 1 µM
- EC50 (Lck enzyme): ≥ 1 µM
- EC50 (FynT enzyme): ≥ 1000 nM
- EC50 (Src enzyme; [4]): ≥ 1000 nM

Compound: CN(C)C/C=C/C(=O)N1CCC[C@H]1c1nc(-c2ccc(C(=O)Nc3ccccn3)cc2)c2c(N)nccn12 [Example 127, (S,E)-4-(8-amino-3-(1-(4-(dimethylamino)but-2-enoyl)pyrrolidin-2-yl)imidazo[1,5-a]pyrazin-1-yl)-N-(pyridin-2-yl)benzamide]
- EC50 (Lyn enzyme; [1]): ≥ 1 µM
- EC50 (Lck enzyme; [2]): ≥ 1 µM
- EC50 (FynT enzyme): ≥ 1000 nM
- EC50 (Src enzyme; [4]): ≥ 1000 nM
